Results: patent US6608082B1, “Treatment of erectile dysfunction using isoquinoline compound melanocortin receptor ligands” (Lion Bioscience AG, priority 1998, dated 2003)
Where two headings read alike, the source gives them in different places. One block for each compound: values may come before it.

Columns and labels:
MCR-1 = biological target: T1, MCR-1 (Homo sapiens, UniProt Q01726); assay: Melanocortin receptor binding assay, competition with 125I-HP 467, HEK 293 cells expressing hMCR-1; settings: read-out: MC-1 IC50
T1 construct: expressed in transfected cells; host or cells: HEK 293
T1 sequence (Q01726 whole entry): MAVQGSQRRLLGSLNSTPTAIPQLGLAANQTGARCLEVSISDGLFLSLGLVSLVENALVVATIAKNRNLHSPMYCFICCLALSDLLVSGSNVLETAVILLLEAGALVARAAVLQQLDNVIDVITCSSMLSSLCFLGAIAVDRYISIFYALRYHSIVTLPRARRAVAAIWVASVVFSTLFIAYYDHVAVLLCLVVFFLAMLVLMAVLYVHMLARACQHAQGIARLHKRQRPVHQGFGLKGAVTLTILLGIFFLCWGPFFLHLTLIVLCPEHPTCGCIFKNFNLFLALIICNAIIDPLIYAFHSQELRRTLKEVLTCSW
Method in brief: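 Intact-cell competition binding, 2.5 hr at 37 °C, in PBS/10% calf serum/1 mM CaCl2; hMCR-4 cells at 4×10^3 per tube, hMCR-1 cells at 2×10^4 per tube. Filtration on BSA/CaCl2-soaked GF/B, cold 50 mM Tris pH 7.4 washes, scintillation count.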

MCR-4 = biological target: T2, MCR-4 (Homo sapiens, UniProt P32245); assay: Melanocortin receptor binding assay, competition with 125I-HP 467, HEK 293 cells expressing hMCR-4; settings: read-out: MC-4 IC50
T2 construct: expressed in transfected cells; host or cells: HEK 293
T2 sequence (P32245 whole entry): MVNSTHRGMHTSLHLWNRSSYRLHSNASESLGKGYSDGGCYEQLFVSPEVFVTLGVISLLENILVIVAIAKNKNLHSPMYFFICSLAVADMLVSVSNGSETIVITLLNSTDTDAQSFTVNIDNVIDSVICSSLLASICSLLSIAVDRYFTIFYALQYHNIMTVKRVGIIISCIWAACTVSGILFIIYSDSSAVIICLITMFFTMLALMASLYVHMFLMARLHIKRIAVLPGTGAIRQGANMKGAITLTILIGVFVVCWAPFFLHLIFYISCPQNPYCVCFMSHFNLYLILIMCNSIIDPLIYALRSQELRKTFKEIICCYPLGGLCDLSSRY
Description: All cell culture media and reagents were obtained from GibcoBRL (Gaithersburg Md.), except for COSMIC CALF SERUM (HyClone; Logan Utah).
Cells were suspended in PBS, 10% COSMIC CALF SERUM and 1 mM CaCl2. Cell suspensions were prepared at a density of 2×10^4 cells/ml for HEK 293 cells expressing hMCR-3, hMCR-4 or hMCR-5, and 1×10^5 cells/ml for HEK 293 cells expressing hMCR-1. Suspensions were placed in a water bath and allowed to warm to 37° C. for 1 hr.
Binding assays were performed in a total volume of 250 μl for HEK 293 cells. […] To each tube was added 4×10^3 HEK 293 cells expressing hMCR-3, hMCR-4 or hMCR-5, or 2×10^4 cells expressing hMCR-1. Assays were incubated for 2.5 hr at 37° C.
GF/B filter plates were prepared by soaking for at least one hour in 5 mg/ml BSA and 10 mM CaCl2. Assays were filtered using a Brandel 96-well cell harvester (Brandel Inc.; Gaithersburg, Md.). The filters were washed four times with cold 50 mM Tris, pH 7.4, the filter plates were dehydrated for 2 hr and 35 μl of MICROSCINT was added to each well. Filter plates were counted using a Packard Topcount (Packard Instrument Co.) and data analyzed using GraphPad PRISM v2.0 (GraphPad Software Inc.; San Diego Calif.) and Microsoft EXCEL v5.0a (Microsoft Corp.; Redmond Wash.).
To assay isoquinoline compounds, binding assays were performed in duplicate in a 96 well format. […] A 0.2 ml aliquot of suspended cells was added to each well to give the cell numbers indicate above, and the cells were incubated at 37° C. for 2.5 hr. Cells were harvested on GF/B filter plates as described above and counted.

[1] = TRG 2408 and TRG 2409 libraries, inhibition of 125I-HP 467 binding
[2] = competition with 125I-HP 467, HEK 293 cells expressing MCR-1
[3] = competition with 125I-HP 467, HEK 293 cells expressing MCR-4
[4] = inhibition of binding of 125I-HP 467, HEK 293 cells expressing MCR-1, TRG 2414 library
[5] = inhibition of binding of 125I-HP 467, HEK 293 cells expressing MCR-4, TRG 2414 library
[6] = inhibition of binding of 125I-HP 467, HEK 293 cells expressing MCR-1
[7] = inhibition of binding of 125I-HP 467, HEK 293 cells expressing MCR-4
[8] = TRG 2414 library, inhibition of binding of 125I-HP 467, HEK 293 cells expressing MCR-1
[9] = TRG 2414 library, inhibition of binding of 125I-HP 467, HEK 293 cells expressing MCR-4
[10] = TRG 2406 and TRG 2407 libraries, inhibition of binding of 125I-HP 467

IC50 (MCR-1; [8]): 4.52 µM
IC50 (MCR-4; [9]): 2.04 µM
SMILES: COc1ccc(CCNCC2c3ccccc3CN(CCCCC(N)CN)C2c2ccccc2Br)cc1 (stereo not drawn) [Cmpd 225]

IC50 (MCR-1; [2]): 3.95 µM
IC50 (MCR-4; [3]): 12.2 µM
SMILES: CNC(CN)CCCCN1Cc2ccccc2C(CNC2CCCCC2)C1c1ccc(NCc2ccc(Cl)cc2)cc1 (stereo not drawn) [TRG 2409-24]

IC50 (MCR-1; [1]): 2.5 µM
IC50 (MCR-4; [1]): 15.4 µM
SMILES: CNCCNC(CN)CCCN1Cc2ccccc2C(CNC2CCCCC2)C1c1ccc(-c2ccccc2)cc1 (stereo not drawn) [TRG 2408-84]

IC50 (MCR-1; [10]): 3.78 µM
IC50 (MCR-4; [10]): 3.49 µM
SMILES: CNC(CN)CCCCN1Cc2ccccc2C(CNCc2ccc(C(F)(F)F)cc2)C1c1ccc(Cl)cc1Cl (stereo not drawn) [TRG 2407-20]

IC50 (MCR-1; [8]): 3 µM
IC50 (MCR-4; [9]): 3.68 µM
SMILES: CCCOc1ccc(C2C(CNC3CCCCC3)c3ccccc3CN2CCCCC(CN)NCCc2ccccc2)cc1 (stereo not drawn) [Cmpd 198]

IC50 (MCR-1; [10]): 5.87 µM
IC50 (MCR-4; [10]): 17 µM
SMILES: CCNc1ccc(C2C(CNc3ccccc3)c3ccccc3CN2CCCCC(CN)NC)cc1 (stereo not drawn) [TRG 2407-41]

IC50 (MCR-1; [4]): 1.92 µM
IC50 (MCR-4; [5]): 3.24 µM
SMILES: NCC(CCCCN1Cc2ccccc2C(CNC2CCCCCC2)C1c1cc(C(F)(F)F)cc(C(F)(F)F)c1)NCc1ccccc1 (stereo not drawn) [TRG 2414-75]

IC50 (MCR-1; [1]): 4.01 µM
IC50 (MCR-4; [1]): 16.3 µM
SMILES: CCNc1ccc(C2C(CNC3CCCCC3)c3ccccc3CN2CCC(CN)NCCN)cc1 (stereo not drawn) [TRG 2408-93]

More lines, now with the values behind:

SMILES: CCNc1ccc(C2C(CNC3CCCCC3)c3ccccc3CN2CC[C@@H](CN)NC)cc1 (stereo partly drawn) [TRG 2408-90]
IC50 (MCR-1; [1]): 5.9 µM
IC50 (MCR-4; [1]): 25.2 µM

SMILES: NCC(CCCCN1Cc2ccccc2C(CNC2CCCCC2)C1c1ccc(-c2ccccc2)cc1)NCC1CCCCC1 (stereo not drawn) [TRG 2411-21]
IC50 (MCR-1; [2]): 0.27 µM
IC50 (MCR-4; [3]): 1.01 µM

SMILES: COc1cccc(CNCC2c3ccccc3CN(CCCCC(CN)NCCc3ccccc3)C2c2ccc(Oc3ccccc3)cc2)c1 (stereo not drawn) [TRG 2414-138]
IC50 (MCR-1; [4]): 10.6 µM
IC50 (MCR-4; [5]): 16.6 µM

SMILES: CCNc1ccc(C2C(CNCCc3ccccc3)c3ccccc3CN2CCCC[C@@H](CN)NCCCCOc2ccccc2)cc1 (stereo partly drawn) [2424#11]
IC50 (MCR-1; [6]): 0.21 µM
IC50 (MCR-4; [7]): 3.52 µM

SMILES: NCC(CCCCN1Cc2ccccc2C(CNC2CCCCC2)C1c1ccc(Cl)cc1Cl)NCCc1ccccc1 (stereo not drawn) [TRG 2414-38]
IC50 (MCR-1; [4]): 1.92 µM
IC50 (MCR-4; [5]): 3.96 µM

SMILES: NCCNC(CN)CCCCN1Cc2ccccc2C(CNC2CCCCC2)C1c1ccc(Cl)cc1Cl (stereo not drawn) [TRG 2408-43]
IC50 (MCR-1; [1]): 1.63 µM
IC50 (MCR-4; [1]): 7.49 µM

SMILES: NCC(CCCCN1Cc2ccccc2C(CNCc2ccccc2C(F)(F)F)C1c1ccccc1Br)NCc1ccccc1 (stereo not drawn) [Cmpd 203]
IC50 (MCR-1; [8]): 30.2 µM
IC50 (MCR-4; [9]): 39.6 µM

SMILES: NCC(CCCCN1Cc2ccccc2C(CNCCc2cccc(Cl)c2)C1c1ccccc1Br)NCc1ccccc1 (stereo not drawn) [Cmpd 215]
IC50 (MCR-1; [8]): 8.51 µM
IC50 (MCR-4; [9]): 6.43 µM

SMILES: NCC(CCCCN1Cc2ccccc2C(CNCCc2ccc(Oc3ccccc3)cc2)C1c1cc(C(F)(F)F)cc(C(F)(F)F)c1)NCc1ccccc1 (stereo not drawn) [TRG 2421-26]
IC50 (MCR-1; [6]): 11.4 µM
IC50 (MCR-4; [7]): 12.9 µM

SMILES: CNC(CN)CCCCN1Cc2ccccc2C(CNCc2ccc(Cl)cc2)C1c1ccc(Cl)cc1Cl (stereo not drawn) [TRG 2407-18]
IC50 (MCR-1; [10]): 3.31 µM
IC50 (MCR-4; [10]): 2.83 µM

SMILES: CNC(CN)CCCCN1Cc2ccccc2C(CN2CCOCC2)C1c1ccc(Cl)cc1Cl (stereo not drawn) [TRG 2407-33]
IC50 (MCR-1; [10]): 6.9 µM
IC50 (MCR-4; [10]): 6.02 µM

SMILES: CNC(CN)CCCCN1Cc2ccccc2C(CNCc2ccccc2Cl)C1c1ccc(Cl)cc1Cl (stereo not drawn) [TRG 2407-12]
IC50 (MCR-1; [10]): 2.7 µM
IC50 (MCR-4; [10]): 3.23 µM

SMILES: CCNc1ccc(C2C(CNCCc3ccccc3)c3ccccc3CN2CCCCC(CN)NCCc2ccccc2)cc1 (stereo not drawn) [TRG 2411-40]
IC50 (MCR-1; [2]): 0.19 µM
IC50 (MCR-4; [3]): 1 µM
